pIC50: −log10 of the molar value.
Target: T1, hPI3Kα (p110alpha catalytic subunit and human p85alpha regulatory subunit complex) (Homo sapiens, UniProt P42336)
T1 construct: made in house; host or cells: Sf21 insect cells (baculovirus, Bac-to-Bac)
Assay: Human PI3Kα enzyme assay (Phospholipid FlashPlate, γ-[33P] ATP)
Type: biochemical
Details: PI3Kα enzyme activity, compound at 1.0 μm, 500 nM ATP
Method: hPIK3CA; p110alpha catalytic subunit (GenBank ACCESSION# NM_006218) and hPIK3R1; p85alpha regulatory subunit (GenBank ACCESSION# NM_181523) are cloned from human cDNA library (Clonetec).
Human p110alpha catalytic subunit gene and human p85alpha regulatory subunit gene are respectively inserted into pFASTBacHT (Invitrogen), and each gene was introduced into a baculovirus vector using a Bac-to-Bac system (Invitrogen). Both viruses are injected to insect cultured cells Sf21 to allow coexpression of proteins. p110alpha catalytic subunit and human p85alpha regulatory subunit complex (hPI3Kα) are purified from the cell extract using a Ni chelate column.
L-alpha-Phosphatidyl-D-myo-inositol 4,5-Diphosphate (diC16) [PI(4,5)P2, Wako Pure Chemical Industries, Ltd.] is suspended in Phospholipid FlashPlate Coating Buffer (PerkinElmer) and applied onto Phospholipid FlashPlate PLUS. PI3K reaction buffer (50 mM Tris-HCl, pH 7.4, 5 mM MgCl2, 1 mM DTT, 0.005% BSA) containing hPI3Kα, γ-[^33P] ATP (PerkinElmer) and cold 500 nM ATP is added to the wells on this plate and the mixture is reacted at room temperature for 1 hr. 50 mM EDTA solution is added to quench the reaction, and the wells are washed with PBS. The radioactivity remaining in the well is measured as enzyme activity by TopCount (PerkinElmer).

T1 sequence (P42336 whole entry): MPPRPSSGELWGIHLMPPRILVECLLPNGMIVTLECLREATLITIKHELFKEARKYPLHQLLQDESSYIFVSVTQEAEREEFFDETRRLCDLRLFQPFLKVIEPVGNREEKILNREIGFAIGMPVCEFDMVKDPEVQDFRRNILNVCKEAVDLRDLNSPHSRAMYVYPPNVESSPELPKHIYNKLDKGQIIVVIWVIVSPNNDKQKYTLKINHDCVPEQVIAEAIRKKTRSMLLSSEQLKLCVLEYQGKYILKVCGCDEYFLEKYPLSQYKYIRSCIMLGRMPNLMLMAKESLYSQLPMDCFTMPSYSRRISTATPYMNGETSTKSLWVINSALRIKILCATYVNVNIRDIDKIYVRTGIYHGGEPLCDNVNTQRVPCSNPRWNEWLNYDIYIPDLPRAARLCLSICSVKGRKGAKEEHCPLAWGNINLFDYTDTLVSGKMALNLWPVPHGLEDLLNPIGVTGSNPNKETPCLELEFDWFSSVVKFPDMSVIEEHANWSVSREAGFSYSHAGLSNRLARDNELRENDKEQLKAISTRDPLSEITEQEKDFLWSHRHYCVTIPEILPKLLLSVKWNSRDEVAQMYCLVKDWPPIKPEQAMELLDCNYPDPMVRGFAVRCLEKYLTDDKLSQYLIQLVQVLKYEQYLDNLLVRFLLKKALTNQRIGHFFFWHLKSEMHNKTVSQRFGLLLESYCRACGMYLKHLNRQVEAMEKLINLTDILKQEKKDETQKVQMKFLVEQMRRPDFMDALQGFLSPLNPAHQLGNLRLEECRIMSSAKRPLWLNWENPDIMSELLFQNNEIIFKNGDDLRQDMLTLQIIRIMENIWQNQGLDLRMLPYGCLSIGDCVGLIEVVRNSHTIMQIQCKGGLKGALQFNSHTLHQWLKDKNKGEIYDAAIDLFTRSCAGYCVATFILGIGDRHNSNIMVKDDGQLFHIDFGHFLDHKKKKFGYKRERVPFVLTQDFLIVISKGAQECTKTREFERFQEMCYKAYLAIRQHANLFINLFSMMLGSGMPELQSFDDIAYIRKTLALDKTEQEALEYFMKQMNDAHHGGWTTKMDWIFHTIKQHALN
T1 sequence (P27986 whole entry partner): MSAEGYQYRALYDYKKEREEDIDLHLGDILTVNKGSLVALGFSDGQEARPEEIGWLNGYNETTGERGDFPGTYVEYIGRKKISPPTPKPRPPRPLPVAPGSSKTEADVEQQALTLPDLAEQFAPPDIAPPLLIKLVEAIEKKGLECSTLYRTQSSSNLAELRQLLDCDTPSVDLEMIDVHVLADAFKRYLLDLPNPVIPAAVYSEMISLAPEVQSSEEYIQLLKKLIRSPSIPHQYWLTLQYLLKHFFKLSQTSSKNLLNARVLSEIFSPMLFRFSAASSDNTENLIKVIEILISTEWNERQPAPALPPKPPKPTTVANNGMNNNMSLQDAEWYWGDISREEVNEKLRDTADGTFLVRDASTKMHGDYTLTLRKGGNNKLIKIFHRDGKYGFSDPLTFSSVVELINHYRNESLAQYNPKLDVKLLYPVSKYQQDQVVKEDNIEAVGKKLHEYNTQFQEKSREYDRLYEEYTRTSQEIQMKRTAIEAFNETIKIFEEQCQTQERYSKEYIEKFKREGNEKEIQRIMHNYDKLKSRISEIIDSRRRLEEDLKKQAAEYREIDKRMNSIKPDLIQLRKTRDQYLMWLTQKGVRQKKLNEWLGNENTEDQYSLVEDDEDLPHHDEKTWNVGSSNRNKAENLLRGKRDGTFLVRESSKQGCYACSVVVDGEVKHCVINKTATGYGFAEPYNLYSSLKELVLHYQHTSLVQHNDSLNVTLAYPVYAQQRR

Row | Inhibitory rate at 1.0 μm (%) | SMILES
1 | 100% | C=CCOc1nc(-c2c(C)nn3ccccc23)sc1-c1nnc[nH]1 [Example 27-B, 2-methyl-3-[4-(prop-2-en-1-yloxy)-5-(4H-1,2,4-triazol-3-yl)-1,3-thiazol-2-yl]pyrazolo[1,5-a]pyridine]
2 | 100% | Cc1nn2ccc(OCCN3CCCCC3)cc2c1-c1nc(-c2ccccc2)c(-c2nnc[nH]2)s1 [Example 32-B, 2-methyl-3-[4-phenyl-5-(4H-1,2,4-triazol-3-yl)-1,3-thiazol-2-yl]-5-(2-piperidin-1-ylethoxy)pyrazolo[1,5-a]pyridine di-p-toluenesulfonate]

Row | SMILES | Inhibitory rate at 1.0 μm (%)
3 | Cc1nn2ccsc2c1-c1nc(-c2ccccc2)c(-c2nnc[nH]2)s1 [Example 35-B, 6-methyl-7-[4-phenyl-5-(4H-1,2,4-triazol-3-yl)-1,3-thiazol-2-yl]pyrazolo[5,1-b][1,3]thiazole acetate] | 101%

Target: T2, human mTOR (Homo sapiens, UniProt P42345)
T2 construct: purchased Invitrogen
T2 sequence (P42345 1360-2549 limits assumed): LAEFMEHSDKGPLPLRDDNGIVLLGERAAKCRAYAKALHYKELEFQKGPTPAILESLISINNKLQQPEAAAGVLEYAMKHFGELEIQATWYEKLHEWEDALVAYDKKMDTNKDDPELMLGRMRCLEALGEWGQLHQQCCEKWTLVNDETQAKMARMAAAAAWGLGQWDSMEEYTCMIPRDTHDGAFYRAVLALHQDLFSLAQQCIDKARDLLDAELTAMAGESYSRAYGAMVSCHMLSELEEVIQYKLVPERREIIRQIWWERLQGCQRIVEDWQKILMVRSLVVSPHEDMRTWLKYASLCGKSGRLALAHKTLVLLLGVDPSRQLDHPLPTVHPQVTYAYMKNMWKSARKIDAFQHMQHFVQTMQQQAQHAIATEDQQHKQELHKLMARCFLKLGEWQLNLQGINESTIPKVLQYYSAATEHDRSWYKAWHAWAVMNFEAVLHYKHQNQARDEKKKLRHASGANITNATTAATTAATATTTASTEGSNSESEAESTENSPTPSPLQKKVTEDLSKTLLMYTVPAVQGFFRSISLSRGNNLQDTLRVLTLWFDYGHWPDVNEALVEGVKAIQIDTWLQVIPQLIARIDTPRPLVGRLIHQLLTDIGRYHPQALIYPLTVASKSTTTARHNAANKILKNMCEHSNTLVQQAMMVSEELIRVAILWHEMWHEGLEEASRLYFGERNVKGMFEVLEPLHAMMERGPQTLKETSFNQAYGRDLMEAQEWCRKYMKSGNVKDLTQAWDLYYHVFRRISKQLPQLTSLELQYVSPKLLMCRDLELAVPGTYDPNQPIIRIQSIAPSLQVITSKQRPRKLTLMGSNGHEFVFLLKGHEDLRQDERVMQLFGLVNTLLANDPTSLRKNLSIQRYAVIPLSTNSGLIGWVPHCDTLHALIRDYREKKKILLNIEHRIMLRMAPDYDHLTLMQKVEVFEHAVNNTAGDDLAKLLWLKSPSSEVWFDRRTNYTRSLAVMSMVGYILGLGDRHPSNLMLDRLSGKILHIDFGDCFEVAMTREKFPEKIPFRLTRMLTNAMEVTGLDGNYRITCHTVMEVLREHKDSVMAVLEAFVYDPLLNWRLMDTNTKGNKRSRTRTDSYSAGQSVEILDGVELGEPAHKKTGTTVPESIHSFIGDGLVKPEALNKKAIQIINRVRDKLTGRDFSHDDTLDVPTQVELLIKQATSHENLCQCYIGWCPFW
Assay: Human mTOR enzyme assay (Z'-lyte peptide FRET)
Type: biochemical
Details: mTOR enzyme activity, compound at 1.0 μm, 10 μM ATP
Method: mTOR reaction buffer (50 mM HEPES, pH 7.5, 5 mM MgCl2, 5 mM MnCl2, 1 mM EGTA, 1 mM DTT, 0.01% BRIJ-35, 0.01% NaN3) containing human mTOR (Invitrogen), 10 μM ATP and 2 μM Z′-lyte 11Ser/Thr peptide (Invitrogen) is added to the well and the mixture is reacted at room temperature for 1 hr.
Development Buffer containing Development Reagent B (for Z′-lyte peptide, Invitrogen) was added, and the mixture is reacted at room temperature for 30 min. The fluorescence at 520 nm and fluorescence at 445 nm are measured with excitation at 400 nm using SpectraMax M5e (Molecular Device). The ratio of the obtained 445 nm fluorescence value/520 nm fluorescence value is calculated, and changes in the fluorescence resonance energy transfer (FRET) of Z′-lyte peptide are detected as the enzyme activity.

Row | Inhibitory rate at 1.0 μm (%) | SMILES
4 | 93% | Cc1nn2ccc(OCCN3CCOCC3)cc2c1-c1nc(-c2ccccc2)c(-c2nnc[nH]2)s1 [Example 31-B, 2-methyl-5-(2-morpholin-4-ylethoxy)-3-[4-phenyl-5-(4H-1,2,4-triazol-3-yl)-1,3-thiazol-2-yl]pyrazolo[1,5-a]pyridine di-p-toluenesulfonate]
5 | 91% | Cc1nn2ccc(OCCO)cc2c1-c1nc(-c2ccccc2)c(-c2nnc[nH]2)s1 [Example 33-B, 2-({2-methyl-3-[4-phenyl-5-(4H-1,2,4-triazol-3-yl)-1,3-thiazol-2-yl]pyrazolo[1,5-a]pyridin-5-yl}oxy)ethanol]

Target: T3, PI3Kalpha (Homo sapiens, UniProt P42336)
T3 construct: His (N); host or cells: baculovirus expression system (insect cells)
T3 sequence (P42336 whole entry): as the sequence (P42336 whole entry) above
T3 sequence (P27986 whole entry partner): as the sequence (P27986 whole entry partner) above
Assay: PI3K alpha enzyme assay (HTRF)
Type: biochemical
Details: PI3Kalpha 0.4875 nM, ATP 25 uM, di-C8 PI(4,5)P2 3.5 uM, 30 min room temperature; read-out: IC50 (inhibit PI3Kalpha)
Method: 0.5 uL compounds in DMSO are added to wells of a 384 well microtitre plate (Corning 3575). At room temperature: 10 ul PI3K reaction buffer (50 mM Hepes, 5 mM DTT, 150 mM NaCl, 10 mM beta-glycerophosphate, 10 mM MgCl2, 0.25 mM sodium cholate and 0.001% CHAPS, pH 7.00) containing ATP (25 uM, Promega) is added followed immediately by 10 ul PI3K reaction buffer containing di-C8 PI(4,5)P2 (3.5 uM, CellSignals) and PI3Kalpha (0.4875 nM, Millennium Protein Sciences Group) and the mixture is incubated with shaking at room temperature for 30 minutes. Then 5 ul PI3K stop mix (50 mM Hepes, 5 mM DTT, 150 mM NaCl, 0.01% Tween-20, 15 mM EDTA and 25 nM biotin-PI(3,4,5)P3 (Echelon) is added to quench the reaction followed immediately by addition of 5 ul HTRF detection mix (50 mM Hepes, 5 mM DTT, 150 mM NaCl, 0.01% Tween-20, 40 mM KF, 10 nM GST:GRP-1 PH domain (Millennium Protein Sciences Group), 15 nM Streptavidin-XL (CisBio) and 0.375 nM anti-GST Eu++ antibody (CisBio) at pH 7.00). The plates are then incubated for 1 hour at room temperature with shaking and then read on a BMG PheraStar Plus reader.

Row | SMILES | pIC50
6 | COc1cnc(NC(C)=O)cc1-c1nc(-c2ccc(Cl)cc2Cl)c(-c2ncc[nH]2)s1 [Example 18-C] | < 6.00
7 | COc1ccc(-c2nc(-c3ccnc(NC(C)=O)c3)sc2-c2ncc[nH]2)cc1OC [Example 16-C] | < 6.00
8 | CC(=O)Nc1cc(-c2nc(-c3ccccc3Cl)c(C(=O)NC[C@@H](C)O)s2)ccn1 [Example 4-C] | < 6.00
9 | CC(=O)Nc1cc(-c2nc(-c3ccccc3)c(-c3ncc[nH]3)s2)c(C)cn1 [Example 36-C] | < 6.00
10 | Cc1nn2c(c1-c1nc(C3CCCCC3)c(-c3nnc[nH]3)s1)CCCC2 [Example 19-B, 3-[4-cyclohexyl-5-(4H-1,2,4-triazol-3-yl)-1,3-thiazol-2-yl]-2-methyl-4,5,6,7-tetrahydropyrazolo[1,5-a]pyridine] | < 6.00
11 | CC(=O)Nc1cc(-c2nc(-c3ccc(-c4nnc(C)o4)cc3)c(-c3ncc[nH]3)s2)ccn1 [Example 8-C] | < 6.00
12 | CC(=O)Nc1cc(-c2nc(-c3ccc(F)c(CO)c3)c(-c3ncc[nH]3)s2)ccn1 [Example 47-C] | < 6.00
13 | CC(=O)Nc1cc(-c2nc(-c3ccccc3Cl)c(-c3ncc[nH]3)s2)c(C)cn1 [Example 30-C] | < 6.00
14 | Cc1nc2cccnn2c1-c1nc(-c2ccccc2)c(-c2nnc[nH]2)s1 [Example 41-B, 2-methyl-3-[4-phenyl-5-(4H-1,2,4-triazol-3-yl)-1,3-thiazol-2-yl]imidazo[1,2-b]pyridazine] | < 6.00
15 | CC(=O)Nc1cc(-c2nc(-c3ccncc3)c(-c3ncc[nH]3)s2)ccn1 [Example 27-C] | < 6.00
16 | CC(=O)Nc1cc(-c2nc(-c3ccc(OC(C)C)cc3)c(-c3ncc[nH]3)s2)ccn1 [Example 46-C] | < 6.00
17 | CC(=O)Nc1cc(-c2nc(-c3cccc(-n4cccn4)c3)c(-c3ncc[nH]3)s2)ccn1 [Example 14-C] | < 6.00

The remaining lines, values ahead:

Row | pIC50 | SMILES
18 | < 6.00 | CCOc1nc(-c2ccnc(NC(=O)c3ccccc3Cl)c2)sc1-c1nnc[nH]1 [Example 54-B, 2-chloro-N-{4-[4-ethoxy-5-(4H-1,2,4-triazol-3-yl)-1,3-thiazol-2-yl]pyridin-2-yl}benzamide]
19 | < 6.00 | CC(=O)Nc1cc(-c2nc(-c3c(C)cccc3C)c(-c3nnc[nH]3)s2)ccn1 [Example 56-C, N-{4-[4-(2,6-dimethylphenyl)-5-(4H-1,2,4-triazol-3-yl)-1,3-thiazol-2-yl]pyridin-2-yl}acetamide]
20 | < 6.00 | COc1cccc(OC)c1-c1nc(-c2c(C)nn3ccccc23)sc1-c1nc[nH]n1 [Example 102-B, 3-[4-(2,6-dimethoxyphenyl)-5-(1H-1,2,4-triazol-3-yl)-1,3-thiazol-2-yl]-2-methylpyrazolo[1,5-a]pyridine]
21 | < 6.00 | COCCNC(=O)c1sc(-c2ccnc(NC(C)=O)c2)nc1-c1ccccc1Cl [Example 64-C]
22 | < 6.00 | CCOc1nc(-c2ccnc(NC(=O)c3sccc3C)c2)sc1-c1nnc[nH]1 [Example 52-B, N-{4-[4-ethoxy-5-(4H-1,2,4-triazol-3-yl)-1,3-thiazol-2-yl]pyridin-2-yl}-3-methylthiophene-2-carboxamide]
23 | < 6.00 | CCOc1nc(-c2ccnc(NC(=O)C3CCCCC3)c2)sc1-c1nnc[nH]1 [Example 50-B, N-{4-[4-ethoxy-5-(4H-1,2,4-triazol-3-yl)-1,3-thiazol-2-yl]pyridin-2-yl}cyclohexanecarboxamide]
24 | < 6.00 | CCOc1nc(-c2ccnc(NC(=O)c3ccncc3)c2)sc1-c1nnc[nH]1 [Example 67-B, N-{4-[4-ethoxy-5-(4H-1,2,4-triazol-3-yl)-1,3-thiazol-2-yl]pyridin-2-yl}pyridine-4-carboxamide]
25 | < 6.00 | CC(=O)Nc1cccc(-c2nc(-c3ccnc(NC(C)=O)c3)sc2-c2ncc[nH]2)c1 [Example 72-C]
26 | < 6.00 | CCOc1nc(-c2ccnc(NC(=O)c3ccccc3C)c2)sc1-c1nnc[nH]1 [Example 68-B, N-{4-[4-ethoxy-5-(4H-1,2,4-triazol-3-yl)-1,3-thiazol-2-yl]pyridin-2-yl}-2-methylbenzamide]
27 | < 6.00 | CCOc1nc(-c2ccnc(NC(=O)C(C)(C)C)c2)sc1-c1nnc[nH]1 [Example 66-B, N-{4-[4-ethoxy-5-(4H-1,2,4-triazol-3-yl)-1,3-thiazol-2-yl]pyridin-2-yl}-2,2-dimethylpropanamide]
28 | < 6.00 | CC(=O)Nc1cc(-c2nc(-c3ccc(Oc4ccccc4)cc3)c(-c3ncc[nH]3)s2)ccn1 [Example 60-C]
29 | < 6.00 | CCOc1nc(-c2ccnc(NC(=O)c3ccccn3)c2)sc1-c1nnc[nH]1 [Example 49-B, N-{4-[4-ethoxy-5-(4H-1,2,4-triazol-3-yl)-1,3-thiazol-2-yl]pyridin-2-yl}pyridine-2-carboxamide]
30 | < 6.00 | CCOc1nc(-c2ccnc(NC(=O)c3c(F)cccc3F)c2)sc1-c1nnc[nH]1 [Example 71-B, N-{4-[4-ethoxy-5-(4H-1,2,4-triazol-3-yl)-1,3-thiazol-2-yl]pyridin-2-yl}-2,6-difluorobenzamide]
31 | < 6.00 | CC(=O)Nc1cc(-c2nc(-c3ccccc3Cl)c(C(=O)NCCO)s2)ccn1 [Example 48-C, 2-[2-(acetylamino)pyridin-4-yl]-4-(2-chlorophenyl)-N-(2-hydroxyethyl)-1,3-thiazole-5-carboxamide]
32 | < 6.00 | CC(=O)Nc1cc(-c2nc(-c3ccccc3Cl)c(-c3nnc[nH]3)s2)c(C)cn1 [Example 65-C]
33 | < 6.00 | COc1ccc(-c2nc(-c3ccnc(NC(C)=O)c3)sc2-c2ncc[nH]2)cc1 [Example 62-C]
34 | < 6.00 | CC(=O)Nc1cc(-c2nc(Br)c(-c3ncc[nH]3)s2)ccn1 [Example 58-C]
